Target: T1, full-length human Mineralocorticoid Receptor (MR) (Homo sapiens, UniProt P08235)
T1 construct: host or cells: PathHunter CHO-K1 cells
T1 sequence (P08235 1-984): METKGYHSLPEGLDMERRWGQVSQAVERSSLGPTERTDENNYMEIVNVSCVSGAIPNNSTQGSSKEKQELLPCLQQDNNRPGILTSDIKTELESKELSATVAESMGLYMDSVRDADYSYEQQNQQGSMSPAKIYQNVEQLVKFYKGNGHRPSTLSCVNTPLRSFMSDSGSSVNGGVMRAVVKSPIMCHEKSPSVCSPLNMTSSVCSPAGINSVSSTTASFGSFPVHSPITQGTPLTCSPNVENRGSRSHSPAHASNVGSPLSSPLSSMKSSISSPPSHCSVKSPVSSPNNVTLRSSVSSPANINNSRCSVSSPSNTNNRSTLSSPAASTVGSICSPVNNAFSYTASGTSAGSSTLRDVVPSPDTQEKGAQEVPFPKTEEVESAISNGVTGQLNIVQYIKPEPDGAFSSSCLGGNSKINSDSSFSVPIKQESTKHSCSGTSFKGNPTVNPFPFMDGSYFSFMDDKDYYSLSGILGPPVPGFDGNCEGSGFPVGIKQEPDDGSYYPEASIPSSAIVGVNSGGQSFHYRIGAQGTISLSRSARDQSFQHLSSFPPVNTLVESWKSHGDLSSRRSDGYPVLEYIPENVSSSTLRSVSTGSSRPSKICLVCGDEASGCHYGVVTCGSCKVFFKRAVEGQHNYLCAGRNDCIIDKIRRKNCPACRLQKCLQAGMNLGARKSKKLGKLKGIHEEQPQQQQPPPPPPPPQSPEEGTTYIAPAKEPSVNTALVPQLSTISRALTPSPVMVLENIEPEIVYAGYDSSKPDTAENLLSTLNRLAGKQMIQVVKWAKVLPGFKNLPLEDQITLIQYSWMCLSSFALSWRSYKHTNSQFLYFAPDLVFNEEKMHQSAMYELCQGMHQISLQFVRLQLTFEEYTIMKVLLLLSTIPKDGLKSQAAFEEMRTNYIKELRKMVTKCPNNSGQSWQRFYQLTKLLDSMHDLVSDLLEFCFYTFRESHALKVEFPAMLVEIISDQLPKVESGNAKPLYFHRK
Assay: human MR NH Pro assay (PathHunter Protein:Protein interaction assay), MR antagonist activity
Assay type: cell-based
Conditions: PathHunter CHO-K1 cells overexpressing human MR; aldosterone about 0.3 nM; 6 hours at 37° C.; luminescence; read-out: Primary Assay IP rating (IP = inflection point for a given dose-response titration curve)
How it was run: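 PathHunter enzyme-complementation assay in cells of full-length human MR recruitment of a coactivator peptide, run in antagonist mode against aldosterone at about 0.3 to 1.0 nM final. Compounds are in a 10-point, 1:3 series from a 4.4 mM top. Incubation is 6 h at 37° C, then detection reagent for 1 h at RT, with a luminescence read-out.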

Compound	IC50 [µM]
CCC(c1ccc(Cl)cc1)(c1noc(-c2ccc(F)cc2)n1)n1ccc2c(NS(C)(=O)=O)cccc21 (stereo not shown) [Compound 59, N-(1-{1-(4-chlorophenyl)-1-[5-(4-fluorophenyl)-1,2,4-oxadiazol-3-yl]propyl}-1H-indol-4-yl)methanesulfonamide]	< 0.1
CCC(c1ccc(Cl)cc1)(c1noc(-c2ccc(Cl)cc2)n1)n1ccc2c(NS(C)(=O)=O)cccc21 (stereo not shown) [Compound 60, N-(1-{1-(4-chlorophenyl)-1-[5-(4-chlorophenyl)-1,2,4-oxadiazol-3-yl]propyl}-1H-indol-4-yl)methanesulfonamide]	< 0.1
CC[C@@](c1ccc(Cl)cc1)(c1noc(-c2ccc(OC)cc2)n1)n1ccc2c(NS(C)(=O)=O)cccc21 [Compound 61, (R)—N-(1-{1-(4-chlorophenyl)-1-[5-(4-methoxyphenyl)-1,2,4-oxadiazol-3-yl]propyl}-1H-indol-4-yl)methanesulfonamide]	< 0.1
CS(=O)(=O)Nc1cccc2c1ccn2C(c1ccc(Cl)cc1)c1nc(-c2ccccc2)no1 (stereo not shown) [Compound 63, N-{1-[(4-chlorophenyl)(3-phenyl-1,2,4-oxadiazol-5-yl)methyl]-1H-indol-4-yl}methanesulfonamide]	0.5 to 5
CC[C@@](c1ccc(Cl)cc1)(c1nc(-c2ccccc2)n[nH]1)n1ccc2c(NS(C)(=O)=O)cccc21 [Compound 64, (R)—N-{1-[1-(4-chlorophenyl)-1-(3-phenyl-1H-1,2,4-triazol-5-yl)propyl]-1H-indol-4-yl}methanesulfonamide]	0.5 to 5
CC[C@@](c1ccc(Cl)cc1)(c1nnc(C)[nH]1)n1ccc2c(NS(C)(=O)=O)cccc21 [Compound 65, (R)—N-{1-[1-(4-chlorophenyl)-1-(5-methyl-4H-1,2,4-triazol-3-yl)propyl]-1H-indol-4-yl}methanesulfonamide]	0.1 to 0.5
CC[C@@](c1ccc(Cl)cc1)(c1nnc(C(F)(F)F)[nH]1)n1ccc2c(NS(C)(=O)=O)cccc21 [Compound 66, (R)—N-(1-{1-(4-chlorophenyl)-1-[5-(trifluoromethyl)-4H-1,2,4-triazol-3-yl]propyl}-1H-indol-4-yl)methanesulfonamide]	0.1 to 0.5
CC[C@@](c1ccc(Cl)cc1)(c1nnc(C2CC2)o1)n1ccc2c(NS(C)(=O)=O)cccc21 [Compound 67, (R)—N-{1-[1-(4-chlorophenyl)-1-(5-cyclopropyl-1,3,4-oxadiazol-2-yl)propyl]-1H-indol-4-yl}methanesulfonamide]	0.1 to 0.5
CCC(c1ccc(Cl)cc1)(c1nnc(C)o1)n1ccc2c(NS(C)(=O)=O)cccc21 (stereo not shown) [Compound 68, N-{1-[1-(4-chlorophenyl)-1-(5-methyl-1,3,4-oxadiazol-2-yl)propyl]-1H-indol-4-yl}methanesulfonamide]	0.1 to 0.5
CCC(c1ccc(Cl)cc1)(c1nnc(C(F)(F)F)o1)n1ccc2c(NS(C)(=O)=O)cccc21 (stereo not shown) [Compound 69, N-(1-{1-(4-chlorophenyl)-1-[5-(trifluoromethyl)-1,3,4-oxadiazol-2-yl]propyl}-1H-indol-4-yl)methanesulfonamide]	0.1 to 0.5
CCC(c1ccc(Cl)cc1)(c1nnc(-c2ccccc2)o1)n1ccc2c(NS(C)(=O)=O)cccc21 (stereo not shown) [Compound 70, N-{1-[1-(4-chlorophenyl)-1-(5-phenyl-1,3,4-oxadiazol-2-yl)propyl]-1H-indol-4-yl}methanesulfonamide]	0.5 to 5
CCC(c1ccc(Cl)cc1)(c1nnc(-c2ccc(Cl)cc2)o1)n1ccc2c(NS(C)(=O)=O)cccc21 (stereo not shown) [Compound 71, N-(1-{1-(4-chlorophenyl)-1-[5-(4-chlorophenyl)-1,3,4-oxadiazol-2-yl]propyl}-1H-indol-4-yl)methanesulfonamide]	< 0.1
CCC(c1ccc(Cl)cc1)(c1nnc(-c2ccc(F)cc2)o1)n1ccc2c(NS(C)(=O)=O)cccc21 (stereo not shown) [Compound 72, N-(1-{1-(4-chlorophenyl)-1-[5-(4-fluorophenyl)-1,3,4-oxadiazol-2-yl]propyl}-1H-indol-4-yl)methanesulfonamide]	0.1 to 0.5
CCC(c1ccc(Cl)cc1)(c1nnc(-c2ccc(C(F)(F)F)cc2)o1)n1ccc2c(NS(C)(=O)=O)cccc21 (stereo not shown) [Compound 73, N-{1-[1-(4-chlorophenyl)-1-{5-[4-(trifluoromethyl)phenyl]-1,3,4-oxadiazol-2-yl}propyl]-1H-indol-4-yl}methanesulfonamide]	0.1 to 0.5
CCC(c1ccc(Cl)cc1)(c1nnc(-c2ccc(OC)cc2)o1)n1ccc2c(NS(C)(=O)=O)cccc21 (stereo not shown) [Compound 74, N-(1-{1-(4-chlorophenyl)-1-[5-(4-methoxyphenyl)-1,3,4-oxadiazol-2-yl]propyl}-1H-indol-4-yl)methanesulfonamide]	0.1 to 0.5
CCC(c1ccc(Cl)cc1)(c1nnc(-c2cc(F)cc(F)c2)o1)n1ccc2c(NS(C)(=O)=O)cccc21 (stereo not shown) [Compound 75, N-(1-{1-(4-chlorophenyl)-1-[5-(3,5-difluorophenyl)-1,3,4-oxadiazol-2-yl]propyl}-1H-indol-4-yl)methanesulfonamide]	0.5 to 5

Compound	IC50 [µM]
CS(=O)(=O)Nc1cccc2c1ccn2C(CC#N)(c1ccc(Cl)cc1)c1nnc(-c2ccccc2)o1 (stereo not shown) [Compound 76, N-{1-[1-(4-chlorophenyl)-2-cyano-1-(5-phenyl-1,3,4-oxadiazol-2-yl)ethyl]-1H-indol-4-yl}methanesulfonamide]	0.1 to 0.5
CCC(c1ccc(Cl)cc1)(c1nc(-c2ccccc2)co1)n1ccc2c(NS(C)(=O)=O)cccc21 (stereo not shown) [Compound 77, N-{1-[1-(4-chlorophenyl)-1-(4-phenyl-1,3-oxazol-2-yl)propyl]-1H-indol-4-yl}methanesulfonamide]	0.5 to 5
COC(=O)C(c1cccc(-c2cccc(OC)c2)c1)n1ccc2c(NS(C)(=O)=O)cccc21 (stereo not shown) [Compound 78]	0.5 to 5
CS(=O)(=O)Nc1cccc2c1ccn2C1(c2ccc(Cl)cc2)CCNC1=O (stereo not shown) [Compound 84, N-{1-[3-(4-chlorophenyl)-2-oxopyrrolidin-3-yl]-1H-indol-4-yl}methanesulfonamide]	0.1 to 0.5
CCC(CO)(c1ccc(Cl)cc1)n1ccc2c(NS(C)(=O)=O)cc(F)cc21 (stereo not shown) [Compound 85, N-(1-(2-(4-chlorophenyl)-1-hydroxybutan-2-yl)-6-fluoro-1H-indol-4-yl)methanesulfonamide]	0.1 to 0.5
CCC(CO)(c1ccc(Cl)cc1Cl)n1ccc2c(NS(C)(=O)=O)cccc21 (stereo not shown) [Compound 87, N-(1-(2-(2,4-dichlorophenyl)-1-hydroxybutan-2-yl)-1H-indol-4-yl)methane sulfonamide]	0.1 to 0.5
CCC(CO)(c1ccc(C(F)(F)F)cc1)n1ncc2c(NS(C)(=O)=O)cccc21 (stereo not shown) [Compound 89, N-(1-(1-hydroxy-2-(4-(trifluoromethyl)phenyl)butan-2-yl)-1H-indazol-4-yl)methanesulfonamide]	0.1 to 0.5
CCC(c1ccc(Cl)cc1)(n1ncc2c(NS(=O)(=O)NC)cccc21)C(C)(C)O (stereo not shown) [Compound 94]	< 0.1
CCC(c1ccc(Cl)cc1)(n1ncc2c(NS(=O)(=O)N(C)C)cccc21)C(C)(C)O (stereo not shown) [Compound 95, 3-(1-(3-(4-chlorophenyl)-2-hydroxy-2-methylpentan-3-yl)-1H-indazol-4-yl)-1,1-dimethyl-sulfonylurea]	0.1 to 0.5
CCC(C(C)=O)(c1ccc(Cl)cc1)n1ccc2c(NS(C)(=O)=O)cc(F)cc21 (stereo not shown) [Compound 98, N-(1-(3-(4-chlorophenyl)-2-oxopentan-3-yl)-6-fluoro-1H-indol-4-yl)methanesulfonamide]	< 0.1
CCC(C(C)=O)(c1ccc(Cl)cc1)n1ccc2c(NS(C)(=O)=O)cccc21 (stereo not shown) [Compound 99, N-(1-(3-(4-chlorophenyl)-2-oxopentan-3-yl)-1H-indol-4-yl)methanesulfonamide]	< 0.1
CCC(C(C)=O)(c1ccc(Cl)cc1)n1ncc2c(NS(=O)(=O)NC)cccc21 (stereo not shown) [Compound 105]	< 0.1
CCC(c1ccc(Cl)cc1Cl)(C(C)O)n1ccc2c(NS(C)(=O)=O)cccc21 (stereo not shown) [Compound 110, N-(1-(3-(2,4-dichlorophenyl)-2-hydroxypentan-3-yl)-1H-indol-4-yl)methanesulfonamide]	< 0.1
CCC(c1ccc(Cl)cc1)(C(C)O)n1ncc2c(NS(=O)(=O)NC)cccc21 (stereo not shown) [Compound 118]	< 0.1
CCC(c1ccc(Cl)cc1)(C(C)O)n1ncc2c(NS(=O)(=O)N(C)C)cccc21 (stereo not shown) [Compound 119, 3-(1-(3-(4-chlorophenyl)-2-hydroxypentan-3-yl)-1H-indazol-4-yl)-1,1-dimethyl-sulfonylurea]	< 0.1

From patent publication US8933113B2 (Merck Sharp & Dohme Corp., priority 2011, dated 2015)
